{
  "source": "patent US20140243414A1",
  "about": "“PHARMACEUTICAL COMPOSITIONS OF CETP INHIBITORS” (Japan Tobacco Inc., priority 2003, published 2014)",
  "key": {"CETP [1]": {"molecular_target": "T1, CETP (Homo sapiens, UniProt P11597)", "T1 construct": "from tissue; host or cells: blood / plasma of human subjects dosed orally with Compound I", "T1 sequence (P11597 18-493)": "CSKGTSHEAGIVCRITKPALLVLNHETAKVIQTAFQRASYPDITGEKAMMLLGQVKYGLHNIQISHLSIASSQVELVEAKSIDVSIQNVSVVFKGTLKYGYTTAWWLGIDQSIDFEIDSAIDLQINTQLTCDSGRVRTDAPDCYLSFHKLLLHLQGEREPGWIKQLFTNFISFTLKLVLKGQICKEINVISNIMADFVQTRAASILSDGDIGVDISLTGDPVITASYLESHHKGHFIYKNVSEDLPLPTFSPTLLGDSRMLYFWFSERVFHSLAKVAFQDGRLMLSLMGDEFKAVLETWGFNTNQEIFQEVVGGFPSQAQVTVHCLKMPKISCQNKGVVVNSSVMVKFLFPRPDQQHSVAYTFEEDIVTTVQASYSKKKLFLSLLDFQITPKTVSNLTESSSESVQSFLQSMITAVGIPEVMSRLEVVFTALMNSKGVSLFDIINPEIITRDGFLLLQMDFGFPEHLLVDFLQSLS", "test": "CETP activity change from pre-dose after single oral doses, Caucasian males (Example 5)", "assay_type": "in vivo", "details": "for change in vivo at 100 mg: 100 mg with food; for change in vivo at 100 mg / change in vivo at 300 mg / change in vivo at 600 mg / change in vivo at 900 mg / change in vivo at 1200 mg / change in vivo at 1500 mg / change in vivo at 1800 mg: read-out: Percent change from pre-dose in CETP activity (mean); for change in vivo at 300 mg: 300 mg with food; for Decrease in CETP activity relative to pre-dose: 6 hours after administration; for change in vivo at 600 mg: 600 mg with food; for change in vivo at 900 mg: 900 mg with food; for change in vivo at 1200 mg: 1200 mg with food; for change in vivo at 1500 mg: 1500 mg with food; for change in vivo at 1800 mg: 1800 mg with food", "protocol": "Administration, dosing, and sampling schedules were substantially similar to those described in Example 1. The tablets were prepared as described in Example 1.\nThe procedure for determining CETP activity was substantially similar to the procedures described in Tollefson et al., Methods Enzymol., 129, 797-816 (1986), and Kato et al., J. Biol. Chem., 264, 4082-4087 (1989).\nCETP activity and changes from baseline (pre-dose) were measured, and the resulting data is summarized in Table 6 as percentage change from baseline."}, "CETP [2]": {"molecular_target": "T1, CETP", "test": "CETP activity after 4 weeks daily treatment, healthy volunteers (Example 9)", "assay_type": "in vivo", "details": "for Absolute change in CETP activity: 4 weeks treatment, mean ± SD; for Decrease in CETP activity relative to baseline: 4 weeks", "protocol": "Each patient took three tablets after breakfast each day for 4 weeks. Patients either took three placebo tablets (placebo); one 300 mg tablet and two placebo tablets (low dose); two 300 mg tablets and one placebo tablet (medium dose); or three 300 mg tablets (high dose). Tablet preparation was as described as in Example 1.\nThe testing period consisted of (a) a run-in period of 4 weeks, followed by (b) 4 weeks of treatment, and (c) 4 weeks of monitoring. Blood samples were drawn after an overnight fast. […] HDL-C was determined with a heparin MnCl2 precipitation reagent and LDL-C was calculated by the Friedewald formula (see, de Grooth et al., supra). CETP activity was measured as described in Example 5.\nTable 11 describes the absolute changes in the assayed properties after 4 weeks of treatment."}, "Solubility in water": {"test": "Solubility in water", "assay_type": "physicochemical"}, "[3]": {"test": "Plasma pharmacokinetics of the active form of Compound I, single oral doses after standard breakfast, Japanese males (Example 3)", "assay_type": "in vivo, human", "details": "Examples 1-4", "protocol": "Administration, dosing, and sampling schedules were commensurate with those described in Example 1. The tablets were prepared as described in Example 1."}},
  "note": "Where two headings read alike, the source gives them in different places.",
  "data": [
    {"smiles": "CCC(CC)CC1(C(=O)Nc2ccccc2SC(=O)C(C)C)CCCCC1", "note": "[Compound I, S-[2-([[1-(2-ethylbutyl)cyclohexyl]carbonyl]amino)phenyl]2-methylpropanethioate]", "values": [
      {"measurement": "change in vivo at 100 mg", "setting": "CETP [1]; 1 h", "value": -2, "unit": "%"},
      {"measurement": "change in vivo at 100 mg", "setting": "CETP [1]; 2 h", "value": -2, "unit": "%"},
      {"measurement": "change in vivo at 100 mg", "setting": "CETP [1]; 4 h", "value": -5, "unit": "%"},
      {"measurement": "change in vivo at 100 mg", "setting": "CETP [1]; 6 h", "value": -7, "unit": "%"},
      {"measurement": "change in vivo at 100 mg", "setting": "CETP [1]; 8 h", "value": -6, "unit": "%"},
      {"measurement": "change in vivo at 100 mg", "setting": "CETP [1]; 24 h", "value": -1, "unit": "%"},
      {"measurement": "change in vivo at 100 mg", "setting": "CETP [1]; post-study", "value": -5, "unit": "%"},
      {"measurement": "change in vivo at 300 mg", "setting": "CETP [1]; 1 h", "value": 0, "unit": "%"},
      {"measurement": "change in vivo at 300 mg", "setting": "CETP [1]; 2 h", "value": -7, "unit": "%"},
      {"measurement": "change in vivo at 300 mg", "setting": "CETP [1]; 4 h", "value": -12, "unit": "%"},
      {"measurement": "change in vivo at 300 mg", "setting": "CETP [1]; 6 h", "value": -13, "unit": "%"},
      {"measurement": "change in vivo at 300 mg", "setting": "CETP [1]; 8 h", "value": -13, "unit": "%"},
      {"measurement": "change in vivo at 300 mg", "setting": "CETP [1]; 24 h", "value": -6, "unit": "%"},
      {"measurement": "change in vivo at 300 mg", "setting": "CETP [1]; post-study", "value": 2, "unit": "%"},
      {"measurement": "Decrease in CETP activity relative to pre-dose", "setting": "CETP [1]; 300 mg", "value": 13, "unit": "%"},
      {"measurement": "change in vivo at 600 mg", "setting": "CETP [1]; 1 h", "value": -3, "unit": "%"},
      {"measurement": "change in vivo at 600 mg", "setting": "CETP [1]; 2 h", "value": -12, "unit": "%"},
      {"measurement": "change in vivo at 600 mg", "setting": "CETP [1]; 4 h", "value": -29, "unit": "%"},
      {"measurement": "change in vivo at 600 mg", "setting": "CETP [1]; 6 h", "value": -36, "unit": "%"},
      {"measurement": "change in vivo at 600 mg", "setting": "CETP [1]; 8 h", "value": -36, "unit": "%"},
      {"measurement": "change in vivo at 600 mg", "setting": "CETP [1]; 24 h", "value": -21, "unit": "%"},
      {"measurement": "change in vivo at 600 mg", "setting": "CETP [1]; post-study", "value": -6, "unit": "%"},
      {"measurement": "Decrease in CETP activity relative to pre-dose", "setting": "CETP [1]; 600 mg", "value": 36, "unit": "%"},
      {"measurement": "change in vivo at 900 mg", "setting": "CETP [1]; 1 h", "value": -3, "unit": "%"},
      {"measurement": "change in vivo at 900 mg", "setting": "CETP [1]; 2 h", "value": -23, "unit": "%"},
      {"measurement": "change in vivo at 900 mg", "setting": "CETP [1]; 4 h", "value": -48, "unit": "%"},
      {"measurement": "change in vivo at 900 mg", "setting": "CETP [1]; 6 h", "value": -55, "unit": "%"},
      {"measurement": "change in vivo at 900 mg", "setting": "CETP [1]; 8 h", "value": -53, "unit": "%"},
      {"measurement": "change in vivo at 900 mg", "setting": "CETP [1]; 24 h", "value": -28, "unit": "%"},
      {"measurement": "change in vivo at 900 mg", "setting": "CETP [1]; post-study", "value": -5, "unit": "%"},
      {"measurement": "Decrease in CETP activity relative to pre-dose", "setting": "CETP [1]; 900 mg", "value": 55, "unit": "%"},
      {"measurement": "change in vivo at 1200 mg", "setting": "CETP [1]; 1 h", "value": -3, "unit": "%"},
      {"measurement": "change in vivo at 1200 mg", "setting": "CETP [1]; 2 h", "value": -17, "unit": "%"},
      {"measurement": "change in vivo at 1200 mg", "setting": "CETP [1]; 4 h", "value": -58, "unit": "%"},
      {"measurement": "change in vivo at 1200 mg", "setting": "CETP [1]; 6 h", "value": -71, "unit": "%"},
      {"measurement": "change in vivo at 1200 mg", "setting": "CETP [1]; 8 h", "value": -70, "unit": "%"},
      {"measurement": "change in vivo at 1200 mg", "setting": "CETP [1]; 24 h", "value": -43, "unit": "%"},
      {"measurement": "change in vivo at 1200 mg", "setting": "CETP [1]; post-study", "value": -4, "unit": "%"},
      {"measurement": "change in vivo at 1500 mg", "setting": "CETP [1]; 1 h", "value": -3, "unit": "%"},
      {"measurement": "change in vivo at 1500 mg", "setting": "CETP [1]; 2 h", "value": -32, "unit": "%"},
      {"measurement": "change in vivo at 1500 mg", "setting": "CETP [1]; 4 h", "value": -72, "unit": "%"},
      {"measurement": "change in vivo at 1500 mg", "setting": "CETP [1]; 6 h", "value": -83, "unit": "%"},
      {"measurement": "change in vivo at 1500 mg", "setting": "CETP [1]; 8 h", "value": -81, "unit": "%"},
      {"measurement": "change in vivo at 1500 mg", "setting": "CETP [1]; 24 h", "value": -48, "unit": "%"},
      {"measurement": "change in vivo at 1500 mg", "setting": "CETP [1]; post-study", "value": 0, "unit": "%"},
      {"measurement": "change in vivo at 1800 mg", "setting": "CETP [1]; 1 h", "value": -3, "unit": "%"},
      {"measurement": "change in vivo at 1800 mg", "setting": "CETP [1]; 2 h", "value": -23, "unit": "%"},
      {"measurement": "change in vivo at 1800 mg", "setting": "CETP [1]; 4 h", "value": -67, "unit": "%"},
      {"measurement": "change in vivo at 1800 mg", "setting": "CETP [1]; 6 h", "value": -74, "unit": "%"},
      {"measurement": "change in vivo at 1800 mg", "setting": "CETP [1]; 8 h", "value": -71, "unit": "%"},
      {"measurement": "change in vivo at 1800 mg", "setting": "CETP [1]; 24 h", "value": -42, "unit": "%"},
      {"measurement": "change in vivo at 1800 mg", "setting": "CETP [1]; post-study", "value": -5, "unit": "%"},
      {"measurement": "Absolute change in CETP activity", "setting": "CETP [2]; 300 mg per day after breakfast", "value": "−15.4 ± 11.9 % of control"},
      {"measurement": "Decrease in CETP activity relative to baseline", "setting": "CETP [2]; 300 mg per day with food", "value": "about 17%"},
      {"measurement": "Absolute change in CETP activity", "setting": "CETP [2]; 600 mg per day after breakfast", "value": "−29.6 ± 19.5 % of control"},
      {"measurement": "Decrease in CETP activity relative to baseline", "setting": "CETP [2]; 600 mg per day with food", "value": "about 33%"},
      {"measurement": "Absolute change in CETP activity", "setting": "CETP [2]; 900 mg per day after breakfast", "value": "−37.2 ± 17.6 % of control"},
      {"measurement": "Decrease in CETP activity relative to baseline", "setting": "CETP [2]; 900 mg per day with food", "value": "about 39%"},
      {"measurement": "solubility", "setting": "Solubility in water", "value": "< 0.1", "unit": "µg/mL"},
      {"measurement": "Bioavailability (as indicated by Cmax, AUC0-tz, AUC0-∞) in Oriental (especially Japanese) humans as compared to Caucasian humans", "setting": "[3]", "value": "greater"}
    ]}
  ]
}
